Source: ChEMBL document CHEMBL1201862, “PubChem BioAssay data set” (2004)
Activity calls are given as the source filed them.

Columns and labels:
[1] = nonselective inhibitors of cellular cAMP signaling, dose response, counter-screen for MC4R biased antagonist project, cell-based, TR-FRET cAMP detection (AID 602305); assay type: functional;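 also: U2OS cells stimulated with forskolin near its EC80 as the cAMP inducer; potency is for inhibition of forskolin-stimulated cAMP signaling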
Melanocortin receptor 4 = Melanocortin receptor 4 (Homo sapiens, UniProt P32245); assay: MC4R antagonist potency on cAMP, dose response, cell-based, TR-FRET, biased antagonists (AID 602298); assay type: functional;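 also: antagonist potency against agonist-stimulated cAMP production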
Melanocortin receptor 4, sequence (P32245 whole entry): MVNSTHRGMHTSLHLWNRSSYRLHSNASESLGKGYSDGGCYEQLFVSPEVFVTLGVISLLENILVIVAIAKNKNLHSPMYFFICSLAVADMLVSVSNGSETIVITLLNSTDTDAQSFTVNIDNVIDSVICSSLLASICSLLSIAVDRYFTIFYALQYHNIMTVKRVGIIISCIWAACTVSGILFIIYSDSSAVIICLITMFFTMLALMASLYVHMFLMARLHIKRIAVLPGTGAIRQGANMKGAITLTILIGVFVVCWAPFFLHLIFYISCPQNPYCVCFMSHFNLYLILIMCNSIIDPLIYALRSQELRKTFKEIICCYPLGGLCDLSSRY

[2] = molecular target: T1, Small ubiquitin-related modifier 1 (Homo sapiens, UniProt P63165); assay: inhibitors of SUMO1 partner interactions, dose response, biochemical, FRET (AID 624383); assay type: functional; details: read-out: IC50_Mean
T1 sequence (P63165 whole entry): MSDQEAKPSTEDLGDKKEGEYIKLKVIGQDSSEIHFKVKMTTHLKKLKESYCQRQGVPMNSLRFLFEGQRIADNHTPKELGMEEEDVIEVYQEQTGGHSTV

[3] = molecular target: T1, Small ubiquitin-related modifier 1; assay: inhibitors of SUMO1 peptide binding, dose response, biochemical, fluorescence polarization, uHTS hits (AID 624382); assay type: functional; details: read-out: IC50_Mean
Aurora kinase A = molecular target: T2, Aurora kinase A (Homo sapiens, UniProt O14965); assay type: functional;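 also: value from the Navigating the Kinome kinase panel profiling, panel entry STK6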
T2 sequence (O14965 whole entry): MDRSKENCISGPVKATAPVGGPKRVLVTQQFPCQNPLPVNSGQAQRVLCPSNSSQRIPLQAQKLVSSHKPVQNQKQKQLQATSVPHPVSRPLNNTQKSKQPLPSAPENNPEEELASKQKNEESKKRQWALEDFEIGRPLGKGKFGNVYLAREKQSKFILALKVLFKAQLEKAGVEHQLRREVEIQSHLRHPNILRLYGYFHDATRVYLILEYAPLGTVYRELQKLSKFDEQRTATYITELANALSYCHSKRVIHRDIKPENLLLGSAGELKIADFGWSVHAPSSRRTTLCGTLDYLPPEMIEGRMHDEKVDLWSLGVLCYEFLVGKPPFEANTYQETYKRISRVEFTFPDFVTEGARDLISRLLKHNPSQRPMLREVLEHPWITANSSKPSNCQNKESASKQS

[4] = molecular target: Vascular endothelial growth factor receptor 2 (Homo sapiens, UniProt P35968); assay type: functional
Vascular endothelial growth factor receptor 2, sequence (P35968 whole entry): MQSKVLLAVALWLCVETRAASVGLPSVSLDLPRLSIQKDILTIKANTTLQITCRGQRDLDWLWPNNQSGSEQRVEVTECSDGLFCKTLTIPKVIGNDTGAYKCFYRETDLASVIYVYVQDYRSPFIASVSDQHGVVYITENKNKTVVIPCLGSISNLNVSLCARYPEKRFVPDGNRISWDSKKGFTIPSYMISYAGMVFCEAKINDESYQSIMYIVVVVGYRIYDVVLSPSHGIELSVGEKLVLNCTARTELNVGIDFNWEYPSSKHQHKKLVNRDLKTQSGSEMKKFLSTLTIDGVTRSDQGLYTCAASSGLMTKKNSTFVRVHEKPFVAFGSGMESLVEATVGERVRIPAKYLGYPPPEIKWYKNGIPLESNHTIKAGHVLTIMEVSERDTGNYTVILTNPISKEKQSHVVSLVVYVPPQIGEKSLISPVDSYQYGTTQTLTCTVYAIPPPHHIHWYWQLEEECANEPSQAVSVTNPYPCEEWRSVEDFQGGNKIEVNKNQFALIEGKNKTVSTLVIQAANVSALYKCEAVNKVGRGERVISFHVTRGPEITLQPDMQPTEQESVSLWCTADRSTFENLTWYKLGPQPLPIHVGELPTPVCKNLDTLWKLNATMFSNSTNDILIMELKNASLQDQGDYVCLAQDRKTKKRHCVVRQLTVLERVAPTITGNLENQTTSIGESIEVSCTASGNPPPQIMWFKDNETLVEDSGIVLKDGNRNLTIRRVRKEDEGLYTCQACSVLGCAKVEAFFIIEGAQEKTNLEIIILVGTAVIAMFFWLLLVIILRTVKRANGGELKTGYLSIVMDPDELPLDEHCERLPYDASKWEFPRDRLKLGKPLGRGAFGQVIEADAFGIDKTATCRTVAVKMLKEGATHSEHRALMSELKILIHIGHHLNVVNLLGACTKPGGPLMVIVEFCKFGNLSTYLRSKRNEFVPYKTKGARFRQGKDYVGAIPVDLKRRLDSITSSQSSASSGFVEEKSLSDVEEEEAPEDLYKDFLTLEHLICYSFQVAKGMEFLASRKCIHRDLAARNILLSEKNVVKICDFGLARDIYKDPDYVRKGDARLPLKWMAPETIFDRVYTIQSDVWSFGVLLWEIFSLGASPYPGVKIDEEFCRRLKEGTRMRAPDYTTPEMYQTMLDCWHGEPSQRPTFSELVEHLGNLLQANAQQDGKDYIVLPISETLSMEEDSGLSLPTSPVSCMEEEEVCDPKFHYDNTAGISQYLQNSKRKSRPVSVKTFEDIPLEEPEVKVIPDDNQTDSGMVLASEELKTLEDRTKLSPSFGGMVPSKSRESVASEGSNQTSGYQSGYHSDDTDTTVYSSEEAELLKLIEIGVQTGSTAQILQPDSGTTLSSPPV

Aurora kinase B = Aurora kinase B (Homo sapiens, UniProt Q96GD4); assay type: functional
Aurora kinase B, sequence (Q96GD4 whole entry): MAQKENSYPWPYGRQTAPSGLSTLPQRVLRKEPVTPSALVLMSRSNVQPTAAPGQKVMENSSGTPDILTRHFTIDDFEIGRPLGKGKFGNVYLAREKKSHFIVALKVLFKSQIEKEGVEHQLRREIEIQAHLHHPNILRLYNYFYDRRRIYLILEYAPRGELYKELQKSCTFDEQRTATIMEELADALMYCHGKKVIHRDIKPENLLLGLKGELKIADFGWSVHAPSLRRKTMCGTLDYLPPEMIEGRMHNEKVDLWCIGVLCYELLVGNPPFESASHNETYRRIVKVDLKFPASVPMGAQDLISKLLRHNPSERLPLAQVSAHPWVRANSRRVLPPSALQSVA

[5] = molecular target: ALK tyrosine kinase receptor (Homo sapiens, UniProt Q9UM73); assay type: functional;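 also: ALK tested as one member of a kinase panel screen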
HEK293 [6] = assay: optical interference in Abeta FP readout, dose response, artefact control for IDE activator project, biochemical, fluorescence polarization (AID 588442); assay type: functional, cell-based; details: Homo sapiens
Insulin-degrading enzyme [7] = molecular target: T3, Insulin-degrading enzyme (Homo sapiens, UniProt P14735); assay: activators of endogenous IDE in HEK cells, dose response, cell-based, fluorescence polarization (AID 588439); assay type: functional
T3 sequence (P14735 whole entry): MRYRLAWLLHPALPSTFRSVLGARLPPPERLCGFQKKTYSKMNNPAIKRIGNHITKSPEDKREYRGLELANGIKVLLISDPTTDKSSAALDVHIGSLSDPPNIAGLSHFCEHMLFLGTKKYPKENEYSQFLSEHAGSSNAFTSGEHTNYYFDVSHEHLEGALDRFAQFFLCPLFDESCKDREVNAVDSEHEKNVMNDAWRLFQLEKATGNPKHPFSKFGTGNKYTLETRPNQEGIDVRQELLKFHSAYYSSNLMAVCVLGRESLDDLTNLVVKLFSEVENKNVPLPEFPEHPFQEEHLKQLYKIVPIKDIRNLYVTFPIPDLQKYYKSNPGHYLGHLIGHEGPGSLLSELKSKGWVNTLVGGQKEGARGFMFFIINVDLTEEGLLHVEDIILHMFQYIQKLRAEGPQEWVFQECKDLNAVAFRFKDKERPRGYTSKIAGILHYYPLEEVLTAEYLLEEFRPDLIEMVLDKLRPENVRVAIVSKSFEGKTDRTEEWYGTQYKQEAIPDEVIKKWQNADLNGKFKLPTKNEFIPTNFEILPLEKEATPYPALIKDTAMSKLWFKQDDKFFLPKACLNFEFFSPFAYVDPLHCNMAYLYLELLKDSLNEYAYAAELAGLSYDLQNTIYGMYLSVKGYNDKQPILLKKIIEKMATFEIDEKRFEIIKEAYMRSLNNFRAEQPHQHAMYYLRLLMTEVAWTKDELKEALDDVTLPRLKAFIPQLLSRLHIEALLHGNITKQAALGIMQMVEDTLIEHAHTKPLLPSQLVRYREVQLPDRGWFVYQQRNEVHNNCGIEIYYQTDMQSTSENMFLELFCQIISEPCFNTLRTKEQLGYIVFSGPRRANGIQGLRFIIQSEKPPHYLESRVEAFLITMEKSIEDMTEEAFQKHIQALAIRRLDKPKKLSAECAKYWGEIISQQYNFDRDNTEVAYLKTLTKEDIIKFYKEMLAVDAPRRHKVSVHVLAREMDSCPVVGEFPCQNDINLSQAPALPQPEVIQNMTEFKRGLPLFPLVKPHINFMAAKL

HEK293 [8] = assay: HEK cell cytotoxicity by LDH release, dose response, cytotoxicity control for IDE activator project, fluorescence, HEK cells (AID 588440); assay type: functional, cell-based; details: Homo sapiens;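 also: cytotoxicity by LDH release measuring loss of membrane integrity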
Insulin-degrading enzyme [9] = molecular target: T3, Insulin-degrading enzyme; assay: activators of recombinant IDE enzyme, dose response, counter-screen for IDE activator project, biochemical, fluorescence polarization (AID 588681)
[10] = molecular target: Hepatocyte nuclear factor 4-alpha (Homo sapiens, UniProt P41235); assay type: functional, cell-based;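 also: biochemical luminescence-based dose-response counterscreen measuring inhibition of HNF4 dimerization, run alongside a screen for blockers of ABHD5–perilipin-5 interaction; split luciferase complementation of HNF4 fusion proteins in cell lysate measuring dimerization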
Hepatocyte nuclear factor 4-alpha, sequence (P41235 whole entry, the tested form may be a part): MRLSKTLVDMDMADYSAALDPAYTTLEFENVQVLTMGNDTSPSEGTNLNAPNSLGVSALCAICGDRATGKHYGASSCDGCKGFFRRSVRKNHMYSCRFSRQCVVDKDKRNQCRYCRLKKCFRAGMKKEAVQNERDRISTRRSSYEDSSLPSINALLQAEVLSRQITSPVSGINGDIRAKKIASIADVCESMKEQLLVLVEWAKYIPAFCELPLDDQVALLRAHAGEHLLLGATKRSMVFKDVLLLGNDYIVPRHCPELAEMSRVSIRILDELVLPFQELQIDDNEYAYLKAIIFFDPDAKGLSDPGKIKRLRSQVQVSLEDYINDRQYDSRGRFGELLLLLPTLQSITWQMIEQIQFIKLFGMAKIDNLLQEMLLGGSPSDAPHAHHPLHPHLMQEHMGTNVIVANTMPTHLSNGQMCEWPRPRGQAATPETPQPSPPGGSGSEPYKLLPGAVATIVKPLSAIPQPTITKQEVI

[11] = CRF-BP/CRF-R2 complex antagonists, dose response, cell-based, uHTS hits, 384-well (AID 651639); assay type: functional, Homo sapiens; details: read-out: IC50_Mean
[12] = molecular target: T4, Corticotropin-releasing factor receptor 2/Corticotropin-releasing factor-binding protein (Homo sapiens, UniProt P24387+Q13324); assay: activators of CRF receptor 2 with binding protein – uHTS hits, confirmation (AID 602473); assay type: functional; details: read-out: EC50_Mean
T4 sequence (Q13324 whole entry): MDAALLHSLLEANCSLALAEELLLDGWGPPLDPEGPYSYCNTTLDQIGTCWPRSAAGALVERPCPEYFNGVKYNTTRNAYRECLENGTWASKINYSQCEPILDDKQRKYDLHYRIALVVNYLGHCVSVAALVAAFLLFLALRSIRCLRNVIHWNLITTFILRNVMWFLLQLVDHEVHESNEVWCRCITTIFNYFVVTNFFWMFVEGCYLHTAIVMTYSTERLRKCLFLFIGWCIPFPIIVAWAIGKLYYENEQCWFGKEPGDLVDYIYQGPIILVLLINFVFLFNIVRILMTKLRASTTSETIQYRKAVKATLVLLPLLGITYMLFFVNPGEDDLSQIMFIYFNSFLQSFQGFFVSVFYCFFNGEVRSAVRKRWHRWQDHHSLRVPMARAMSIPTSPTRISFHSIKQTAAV
T4 sequence (P24387 whole entry): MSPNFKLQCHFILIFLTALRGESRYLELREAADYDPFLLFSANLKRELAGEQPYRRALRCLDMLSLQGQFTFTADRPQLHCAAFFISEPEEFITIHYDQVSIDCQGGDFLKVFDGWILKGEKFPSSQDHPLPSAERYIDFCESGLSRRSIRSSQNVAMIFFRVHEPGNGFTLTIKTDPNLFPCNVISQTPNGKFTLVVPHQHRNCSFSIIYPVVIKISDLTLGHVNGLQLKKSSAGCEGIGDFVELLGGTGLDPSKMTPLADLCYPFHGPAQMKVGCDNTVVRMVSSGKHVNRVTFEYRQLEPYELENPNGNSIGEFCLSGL

[13] = molecular target: T4, Corticotropin-releasing factor receptor 2/Corticotropin-releasing factor-binding protein; assay: Dose Response confirmation of uHTS hits for small molecule antagonists of the CRF-binding protein and CRF-R2 receptor complex.; assay type: functional; details: read-out: IC50_Mean
[14] = molecular target: Ras and Rab interactor 1/Tyrosine-protein kinase ABL1 (Homo sapiens, UniProt P00519+Q13671); assay type: functional;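 also: biochemical TR-FRET dose-response test measuring inhibition of binding between Rin1 and Abl proteins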
Ras and Rab interactor 1/Tyrosine-protein kinase ABL1, sequence (P00519 whole entry): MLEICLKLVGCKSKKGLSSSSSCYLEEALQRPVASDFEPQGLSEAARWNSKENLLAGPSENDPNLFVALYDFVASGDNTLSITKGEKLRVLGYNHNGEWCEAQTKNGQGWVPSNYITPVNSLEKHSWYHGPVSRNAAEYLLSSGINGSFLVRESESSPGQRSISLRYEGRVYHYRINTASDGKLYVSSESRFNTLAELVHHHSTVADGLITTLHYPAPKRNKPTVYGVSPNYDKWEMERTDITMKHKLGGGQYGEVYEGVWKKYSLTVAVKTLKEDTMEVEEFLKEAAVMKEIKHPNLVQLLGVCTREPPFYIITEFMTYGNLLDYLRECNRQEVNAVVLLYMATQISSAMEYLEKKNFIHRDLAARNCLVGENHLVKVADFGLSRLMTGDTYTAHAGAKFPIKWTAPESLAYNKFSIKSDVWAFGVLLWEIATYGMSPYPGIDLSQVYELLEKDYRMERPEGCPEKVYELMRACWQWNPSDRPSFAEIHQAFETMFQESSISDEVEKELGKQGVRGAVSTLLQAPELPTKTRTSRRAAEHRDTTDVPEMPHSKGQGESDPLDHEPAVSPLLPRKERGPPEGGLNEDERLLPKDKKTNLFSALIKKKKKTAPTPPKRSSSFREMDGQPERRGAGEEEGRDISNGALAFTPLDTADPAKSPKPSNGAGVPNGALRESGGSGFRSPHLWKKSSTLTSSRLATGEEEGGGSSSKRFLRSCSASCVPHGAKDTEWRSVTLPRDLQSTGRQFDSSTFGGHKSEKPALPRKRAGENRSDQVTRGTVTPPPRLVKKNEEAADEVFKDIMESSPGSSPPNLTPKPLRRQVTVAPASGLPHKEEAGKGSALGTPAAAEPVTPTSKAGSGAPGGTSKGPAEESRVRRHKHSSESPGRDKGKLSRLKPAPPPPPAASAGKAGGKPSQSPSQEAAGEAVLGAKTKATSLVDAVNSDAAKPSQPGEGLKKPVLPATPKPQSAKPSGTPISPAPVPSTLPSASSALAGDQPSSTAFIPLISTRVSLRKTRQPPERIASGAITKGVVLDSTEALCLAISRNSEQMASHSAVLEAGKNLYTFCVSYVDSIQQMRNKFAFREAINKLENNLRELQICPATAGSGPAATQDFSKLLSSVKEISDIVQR
Ras and Rab interactor 1/Tyrosine-protein kinase ABL1, sequence (Q13671 whole entry): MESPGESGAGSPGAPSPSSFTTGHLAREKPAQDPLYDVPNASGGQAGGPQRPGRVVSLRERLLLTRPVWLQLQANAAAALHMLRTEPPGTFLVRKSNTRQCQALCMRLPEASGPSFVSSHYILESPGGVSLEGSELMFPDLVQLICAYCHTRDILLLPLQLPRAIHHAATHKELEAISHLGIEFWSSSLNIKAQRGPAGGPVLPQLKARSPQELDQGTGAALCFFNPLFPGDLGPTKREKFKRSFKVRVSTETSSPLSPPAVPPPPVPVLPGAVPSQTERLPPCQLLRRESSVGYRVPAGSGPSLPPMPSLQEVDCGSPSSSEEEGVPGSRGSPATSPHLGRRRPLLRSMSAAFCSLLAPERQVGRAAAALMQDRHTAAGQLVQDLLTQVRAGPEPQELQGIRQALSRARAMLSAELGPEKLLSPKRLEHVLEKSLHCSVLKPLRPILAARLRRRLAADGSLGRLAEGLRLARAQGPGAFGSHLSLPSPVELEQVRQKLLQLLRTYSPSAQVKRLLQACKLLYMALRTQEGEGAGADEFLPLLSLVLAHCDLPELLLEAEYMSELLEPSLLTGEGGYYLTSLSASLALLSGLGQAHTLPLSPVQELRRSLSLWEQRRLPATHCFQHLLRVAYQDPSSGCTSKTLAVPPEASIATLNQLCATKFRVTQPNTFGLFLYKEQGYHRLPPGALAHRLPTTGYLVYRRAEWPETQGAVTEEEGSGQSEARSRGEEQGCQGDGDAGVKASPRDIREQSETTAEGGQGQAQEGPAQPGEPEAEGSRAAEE

[15] = molecular target: T5, Replicative DNA helicase DnaB (Mycobacterium tuberculosis, UniProt P9WMR3); assay: DnaB intein splicing inhibitors, dose response, biochemical, cell-free fluorescence (AID 449749); assay type: functional
T5 sequence (P9WMR3 whole entry): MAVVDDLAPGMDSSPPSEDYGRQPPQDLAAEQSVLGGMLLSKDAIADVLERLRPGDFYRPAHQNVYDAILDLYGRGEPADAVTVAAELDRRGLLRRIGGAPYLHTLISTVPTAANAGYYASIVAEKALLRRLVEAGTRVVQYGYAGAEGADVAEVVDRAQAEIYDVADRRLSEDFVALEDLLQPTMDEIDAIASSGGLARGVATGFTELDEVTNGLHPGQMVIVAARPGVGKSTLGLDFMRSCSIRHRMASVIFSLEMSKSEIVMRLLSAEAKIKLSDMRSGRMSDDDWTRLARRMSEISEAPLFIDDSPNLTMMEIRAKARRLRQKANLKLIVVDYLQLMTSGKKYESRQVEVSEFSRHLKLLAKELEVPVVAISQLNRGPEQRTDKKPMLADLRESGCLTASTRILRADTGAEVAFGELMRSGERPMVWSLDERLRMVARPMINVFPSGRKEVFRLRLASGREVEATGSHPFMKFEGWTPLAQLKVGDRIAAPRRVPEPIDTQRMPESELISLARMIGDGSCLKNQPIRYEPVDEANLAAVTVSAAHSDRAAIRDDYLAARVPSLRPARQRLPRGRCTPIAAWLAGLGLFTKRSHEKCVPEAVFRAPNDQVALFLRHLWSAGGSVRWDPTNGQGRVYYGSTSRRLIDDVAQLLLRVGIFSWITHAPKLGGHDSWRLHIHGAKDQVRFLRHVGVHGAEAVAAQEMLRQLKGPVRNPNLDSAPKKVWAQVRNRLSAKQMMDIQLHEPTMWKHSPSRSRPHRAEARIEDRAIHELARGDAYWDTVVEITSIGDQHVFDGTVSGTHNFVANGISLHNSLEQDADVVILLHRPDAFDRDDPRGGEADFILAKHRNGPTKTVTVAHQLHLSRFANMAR

Protein RecA = molecular target: T6, Protein RecA (Mycobacterium tuberculosis, UniProt P9WHJ3); assay: Fluorescence Cell-Free Homogeneous Dose Retest to Identify Inhibitors of RecA-Intein Splicing Activity. [Related pubchem assays (depositor defined):AID2097, AID2223, AID489010, AID492950]; assay type: functional
T6 sequence (P9WHJ3 whole entry): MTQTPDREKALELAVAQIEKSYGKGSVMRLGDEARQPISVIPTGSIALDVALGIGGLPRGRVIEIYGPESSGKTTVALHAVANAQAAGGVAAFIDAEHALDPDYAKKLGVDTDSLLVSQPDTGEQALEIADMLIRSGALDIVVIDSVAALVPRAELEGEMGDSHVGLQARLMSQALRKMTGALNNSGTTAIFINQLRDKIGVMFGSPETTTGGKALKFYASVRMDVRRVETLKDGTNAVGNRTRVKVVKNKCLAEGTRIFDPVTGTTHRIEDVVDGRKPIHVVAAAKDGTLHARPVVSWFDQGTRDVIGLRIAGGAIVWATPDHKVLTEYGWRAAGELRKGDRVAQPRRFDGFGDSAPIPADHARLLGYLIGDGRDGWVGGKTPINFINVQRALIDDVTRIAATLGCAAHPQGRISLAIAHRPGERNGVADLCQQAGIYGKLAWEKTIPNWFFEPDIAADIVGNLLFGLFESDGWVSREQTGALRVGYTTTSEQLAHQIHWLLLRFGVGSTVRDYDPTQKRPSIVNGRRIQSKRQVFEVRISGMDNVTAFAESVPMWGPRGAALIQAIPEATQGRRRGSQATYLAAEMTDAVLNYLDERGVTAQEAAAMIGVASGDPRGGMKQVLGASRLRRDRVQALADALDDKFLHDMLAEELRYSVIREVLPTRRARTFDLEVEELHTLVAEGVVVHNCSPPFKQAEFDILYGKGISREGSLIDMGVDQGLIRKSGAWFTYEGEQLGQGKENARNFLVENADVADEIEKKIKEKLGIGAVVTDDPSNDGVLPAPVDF

With `O=C1c2ccccc2C(=O)N1SC1CCCCC1` the IC50 [1] was 63.7 µM (inactive) and the IC50 (Melanocortin receptor 4) was 62 µM (inactive).
In the case of `CCCCCC(=O)Nc1nc(C)c(-c2csc(Nc3cc(Cl)ccc3C)n2)s1`, the IC50 [2] was 10.7 µM (active) and the IC50 [3] was > 66.6 µM (inactive).
With `NC(=O)c1cccc2nc(-c3ccc(-n4ccc(CN5CCCCC5)c4)cc3)[nH]c12` the Ki (Aurora kinase A) was > 2 µM (inactive), the Ki [4] was 2 µM (active) and the Ki (Aurora kinase B) was 0.0398 µM (active). The Ki [5] was > 3.16 µM (inactive).
With `NC(=O)c1ccc(SCC(=O)OCC(=O)NCC2CCCCC2)c([N+](=O)[O-])c1` the IC50 [1] was > 64.5 µM (inactive) and the IC50 (Melanocortin receptor 4) was > 64.5 µM (inactive).
For `CC(OC(=O)CC1CC2CCC1C2)C(=O)Nc1cccc(S(=O)(=O)N2CCOCC2)c1` (stereo not given), the EC50 (HEK293 [6]) was > 54.7 µM (inactive), the EC50 (Insulin-degrading enzyme [7]) was > 54.7 µM (inactive) and the IC50 (HEK293 [8]) was > 89.2 µM (inactive). The EC50 (Insulin-degrading enzyme [9]) was > 54.7 µM (inactive).
In the case of `COc1cc(C(C)=O)ccc1OCc1cn(CC(=O)c2ccc(O)cc2)nn1`, the IC50 [10] was 5.85 µM (active).
In the case of `O=C(O)c1cnn(-c2nc(-c3ccc(Cl)c(Cl)c3)cs2)c1C(F)(F)F`, the IC50 [1] was > 64.6 µM (inactive), the IC50 [11] was 11 µM (active) and the IC50 (Melanocortin receptor 4) was 5 µM (active). For the same compound, the EC50 [12] was 43.4 µM (active) and the IC50 [13] was 13.2 µM (active).
With `COC(=O)c1ccc(COC(=O)c2ccc(-n3cnnn3)cc2)o1` the IC50 [14] was 21.1 µM (inactive).
With `CC1(c2nnc(Cc3ccccc3)o2)CC(c2c(Cl)cccc2Cl)=NO1` (stereo not given) the EC50 (HEK293 [6]) was > 55.9 µM (inactive), the EC50 (Insulin-degrading enzyme [7]) was > 54.7 µM (inactive) and the IC50 (HEK293 [8]) was > 89.2 µM (inactive). For the same compound, the EC50 (Insulin-degrading enzyme [9]) was > 54.7 µM (inactive).
For `CN(C)C(=O)C=Cc1ccc(-c2ccc(NC(=O)Nc3cccc(C(F)(F)F)c3)cc2)c2c(N)n[nH]c12`, the Ki (Aurora kinase A) was 0.0398 µM (active) and the Ki (Aurora kinase B) was 0.00316 µM (active).
With `COc1ccc(OC)c(NC(=O)Cc2ccc(NC3=NC4CS(=O)(=O)CC4S3)cc2)c1` (stereo not given) the AC50 [15] was > 380 µM (inactive), the EC50 (Protein RecA) was > 380 µM (inactive) and the IC50 [14] was 14.1 µM (inactive).
